From patent US20170119727A1, “A THERAPEUTIC PROTOCOL FOR TREATING OVARIAN CANCER” (Bionomics Limited, priority 2014, published 2017)

Tests used:
[1] = system: Human umbilical vein endothelial cells (HUVECs), tumour type activated endothelial cells; assay: Proliferation assay - activated endothelium (MTT); assay type: cell-based; settings: for potency against activated (tumor) versus quiescent (normal) endothelial cells: activated compared with quiescent endothelial cells; for IC50: Homo sapiens, HUVEC, tumour type activated endothelial cells (HUVECs), 48 hrs, read-out: HUBECs Tum: IC50
Method: Proliferation Assay—Activated Endothelium:
(§1) Human umbilical vein endothelial cells (CC-2519, Clonetics) were plated at 2500 cells/well in EGM2 (CC-3162, Clonetics) in a 96 well plate in triplicate. Cells were cultured overnight at 37° C. 5% CO2. Medium was subsequently replaced with fresh medium including the compound or negative control. Cells were cultured for a period of 48 hrs. An MTT assay was performed to measure changes in cell numbers. Briefly, 20 μl of MTT reagent was added to cells containing 100 μl of EGM2 and incubated at 37° C. for 2 hours. Absorbance was measured at 492 nm.

[2] = system: Human umbilical vein endothelial cells (HUVECs), normal quiescent type endothelial cells; assay: Proliferation assay - quiescent endothelium (MTT); assay type: cell-based; settings: HUVEC, 48 hrs, read-out: HUBECs Norm: IC50
Method: Proliferation Assay—Quiescent Endothelium:
as §1, with “15000” for “2500”, “EBM2 (CC-3156, Clonetics)+0.5% FBS (CC-4101A, Clonetics)+GA-1000 (CC-4381A,” for “EGM2 (CC-3162,”, “EBM2+0.5% FBS” for “EGM2”

[3] = system: MCF-7; assay: Growth inhibition of cancer cell line (Sulforhodamine B or Systmex cell counting assay); assay type: cell-based; settings: Homo sapiens, MCF7, concentration required to inhibit net cell growth by 50%
[4] = system: tubulin; assay: Tubulin polymerization inhibition; assay type: biochemical
[5] = system: MDA-MB-231 solid orthotopic tumours; assay: Tumour growth inhibition, single agent; assay type: in vivo, Balb/c nu/nu mice; settings: Example 2 40 mg/kg i.v., two cycles; vs vehicle; significant from day 4 (p<0.001) through Day 70
Method: Balb/c nu/nu mice bearing MDA-MB-231 solid orthotopic tumours were treated with compound Example 2 at 40 mg/kg. Animals were i.v. dosed with a total of two cycles of Example 2 treatment. Each cycle was dosing on […] followed by a three week no-dosing period. Tumour growth represented as a ratio to initial tumour volume is shown over a total of 72-days.
Tumour growth as well as animal health were monitored for up to 72 days post-day 1 of treatment. […] Significant differences in tumour growth between Example 2 treated (n=64) and vehicle treated (n=20) animals were observed as early as day 4 (p<0.001; unpaired t-test; Prism® analysis) through to Day 70.

[6] = Phase I clinical trial: dose limiting toxicities, adverse events, recommended dose; assay type: in vivo, female ovarian cancer subjects (patients)
Excerpt: (§2) A standard 3+3 Phase I design was used to determine the recommended dose of compound Example 2 with combination partners (b) and (c). In addition, this design also facilitated the determination of secondary endpoints including progression-free survival (PFS) and adverse event rates. Further correlative endpoints that measure the effect of the drug combination on compound Example 2 pharmacokinetics (PK) were also captured in this trial design.
(§3) The patient cohort selected for this Phase I clinical trial were female ovarian cancer subjects with a PFS interval of ≧4 months after first or second line platinum-based chemotherapy.
(§4) The dosing regime is outlined in FIG. 4. This protocol included compound Example 2 escalation at 12 or 16 mg/m^2 IV on days 2 and 9, carboplatin AUC4 on day 1, gemcitabine escalation 800 and 1000 mg/m^2 days 1 and 8. Treatment proceeded across a 21 day cycle for a maximum of 6 cycles. Treatment was followed by single agent maintenance with compound Example 2 at 16 mg/m^2 for a maximum of 6 additional cycles.
(§5) The key outcomes of this trial include the identification of the maximum tolerated dose (MTD) of compound Example 2 and combination partners (b) and (c), dose limiting toxicities and patient response measured according to CA125 levels or RECIST. Additional plasma biomarker studies that measure concentrations of ferritin, interleukin-8, interleukin-16 and macrophage inflammatory protein-1β provide correlative data relating to the PK of compound Example 2.

[7] = system: cisplatin resistant A2780Cis solid orthotopic tumours; assay: Tumour growth inhibition, combination with carboplatin and gemcitabine; assay type: in vivo, Balb/c nu/nu mice; settings: Example 2 24 mg/kg + carboplatin 50 mg/kg + gemcitabine 12.5 mg/kg i.v.; triplet compared to carboplatin/gemcitabine doublet; up to 21 days
Method: (a) Example 2 Treatment in Combination with Carboplatin (Combination Partner (b)) and Gemcitabine (Combination Partner (c)).
Balb/c nu/nu mice bearing cisplatin resistant A2780Cis solid orthotopic tumours were treated with compound Example 2 at 24 mg/kg, carboplatin at 50 mg/kg and gemcitabine at 12.5 mg/kg. Animals were i.v. dosed with a single dose of carboplatin, two weekly doses of Example 2 and two weekly doses of gemcitabine. Each cycle of Example 2 and gemcitabine was dosing on days 1 and 8; and each cycle of carboplatin was dosing on day 1.
Tumour growth as well as animal health were monitored for up to 21 days post-day 1 of treatment.

[8] = system: recurrent ovarian cancer; assay: Phase I clinical trial: objective response (CA125 or RECIST); assay type: in vivo, female ovarian cancer subjects (patients); settings: combination with carboplatin and gemcitabine
Excerpt: as §2, §3, §4, §5

[9] = Dose level 1 (n = 6), combination with carboplatin and gemcitabine, all cycles
[10] = Dose level 2a (n = 3), combination with carboplatin and gemcitabine, all cycles
[11] = Dose level 2b (n = 60 as printed), combination with carboplatin and gemcitabine, all cycles

For `COc1ccc(/C=C\c2cc(OC)c(OC)c(OC)c2)cc1O` [Combretastatin A4], the “potency against activated (tumor) versus quiescent (normal) endothelial cells” value [1] was “equally potent against quiescent and activated endothelial cells”.

`COc1ccc(/C=C\c2cc(OC)c(OC)c(OC)c2)cc1O` [Comparator A] gave an IC50 [2] of 0.001 to 0.01 µM, an IC50 [3] of 0.005 µM and an IC50 [1] of 0.001 to 0.01 µM.

`COc1ccc(/C=C\c2cc(OC)c(OC)c(OC)c2)cc1OP(=O)(O)O` [Comparator B] gave an IC50 [2] of 0.001 to 0.01 µM, an IC50 [3] of 0.005 µM and an IC50 [1] of 0.001 to 0.01 µM.

With `COc1ccc2c(C(=O)c3cc(OC)c(OC)c(OC)c3)coc2c1` [Comparator C] the IC50 [2] was 0.01 to 0.1 µM, the IC50 [3] was 0.055 µM and the IC50 [1] was 0.01 to 0.1 µM.

`COc1ccc2c(C(=O)c3cc(OC)c(OC)c(OC)c3)c(Br)oc2c1` [Comparator D] gave an IC50 [2] of 0.1 to 1 µM, an IC50 [3] of 0.5 µM and an IC50 [1] of 0.1 to 1 µM.

With `COc1cc(C(=O)c2c(C)oc3c(O)c(OC)ccc23)cc(OC)c1OC` [Example 1, 2-Methyl-7-hydroxy-3-(3,4,5-trimethoxybenzoyl)-6-methoxybenzofuran] the IC50 [2] was 0.01 to 0.1 µM, the tubulin polymerization inhibition [4] was “potent tubulin polymerization inhibitor” and the IC50 [3] was 0.002 µM. For the same compound, the IC50 [1] was 0.0001 to 0.001 µM and the “potency against activated (tumor) versus quiescent (normal) endothelial cells” value [1] was “high potency towards tumor endothelial cells (activated) over normal endothelial cells (quiescent)”.

With `COc1cc(C(=O)c2c(C)oc3c(OP(=O)([O-])[O-])c(OC)ccc23)cc(OC)c1OC.[Na+].[Na+]` [Example 2, Disodium 6-methoxy-2-methyl-3-(3,4,5-trimethoxybenzoyl)benzofuran-7-yl phosphate] the “Tumour growth (ratio to initial tumour volume)” value [5] was “tumour growth inhibition”, the “Hypertension Gr 3” value [6, 9] was 1 and the “Neutropenia Gr 3” value [6, 9] was 3. The “Neutropenia Gr 4” value [6, 9] was 2, the “Number of DLTs” value ([6]; Dose level 1: Example 2 12 mg/m2 + carboplatin AUC4 + gemcitabine 800 mg/m2, 6 patients) was 1 and the “Hypersensitivity Gr 3” value [6, 10] was 1. For the same compound, the “Neutropenia Gr 3” value [6, 10] was 1, the “Neutropenia Gr 4” value [6, 10] was 2 and the “Thrombocytopenia Gr 4” value [6, 10] was 2. For the same compound, the “Number of DLTs” value ([6]; Dose level 2a: Example 2 16 mg/m2 + carboplatin AUC4 + gemcitabine 800 mg/m2, 3 patients) was 2, the “Anaemia Gr 3” value [6, 11] was 1 and the “Neutropenia Gr 3” value [6, 11] was 5. For the same compound, the “Thrombocytopenia Gr 3” value [6, 11] was 2, the “adverse events or dose limiting toxicities” value ([6]; Dose level 2b: Example 2 12 mg/m2 + carboplatin AUC4 + gemcitabine 1000 mg/m2) was “no adverse events or dose limiting toxicities were observed” and the “Number of DLTs” value ([6]; Dose level 2b: Example 2 12 mg/m2 + carboplatin AUC4 + gemcitabine 1000 mg/m2, 6 patients) was 0. For the same compound, the safety and tolerability ([6]; combination with combination partners (b) carboplatin and (c) gemcitabine, subjects with recurrent ovarian cancer) was “safe and tolerable”, the recommended dose ([6]; with carboplatin AUC4 and gemcitabine 1000 mg/m^2 (dose level 2b)) was 12 mg/m^2 and the “Tumour growth (tumor volume)” value [7] was “tumour growth inhibition”. For the same compound, the “Objective responses (CA125 or RECIST) %” value ([8]; Dose level 1, 6 accrued) was 68%, the “Objective responses (CA125 or RECIST) N” value ([8]; Dose level 1, 6 accrued) was 4 and the “Objective responses (CA125 or RECIST) %” value ([8]; Dose level 2a, 3 accrued) was 33%. For the same compound, the “Objective responses (CA125 or RECIST) N” value ([8]; Dose level 2a, 3 accrued) was 1, the “Objective responses (CA125 or RECIST) %” value ([8]; Dose level 2b, 6 accrued) was 83% and the “Objective responses (CA125 or RECIST) N” value ([8]; Dose level 2b, 6 accrued) was 5. The “Objective responses (CA125 or RECIST) %” value ([8]; all dose levels, 15 accrued) was 68% and the “Objective responses (CA125 or RECIST) N” value ([8]; all dose levels, 15 accrued) was 10.
